Results as given in article PMC4195943, “A novel small-molecule MRCK inhibitor blocks cancer cell invasion” (Cell Communication and Signaling : CCS, 2014).

Key:
[1] = molecular target: T1, MRCKβ (Homo sapiens, UniProt Q9Y5S2); assay: IMAP fluorescence polarization kinase assay, MRCKβ; assay type: biochemical; conditions: in vitro, 1 μM ATP
T1 construct: purchased Life Technologies
Procedure: (§1) MRCKα, MRCKβ, ROCK1 and ROCK2 assays were performed using an IMAP fluorescence polarization assay format (Molecular Devices Inc.). 8–12 nM of each kinase (Life Technologies) was incubated for 60 min at room temperature with 100 nM FAM-S6-ribosomal protein derived peptide (synthesized by Alta Biosciences, University of Birmingham UK) in the presence of 1 μM ATP and 0.5 mM MgCl2 in 20 mM Tris buffer (pH 7.4) containing 0.01% Tween-20 and 1 mM DTT (MRCKα and β); or 1 μM ATP, 10 mM MgCl2 in 20 mM Tris buffer (pH 7.5) containing 0.25 mM EGTA 0.01% Triton X-100 and 1 mM DTT (ROCK1 and ROCK2). Typically, dose response analyses were performed over concentration ranges from 0.005 - 100 μM. Reactions were stopped by adding 2 assay volumes of 0.25% (v/v) IMAP binding reagent in 1× IMAP binding buffer A (Molecular Devices). After 30 min incubation to allow binding reagent to bind phosphorylated peptide, fluorescence polarization was measured on a Tecan Saphire^2 plate reader at excitation (470 nm) and emission (530 nm) wavelengths. Inhibition was calculated using no inhibitor and no enzyme controls as 0 and 100% inhibition, respectively.

[2] = tested on: MLC phosphorylation in SCC12 cells; assay: MLC phosphorylation in SCC12 squamous cell carcinoma cells (quantitative western blot); assay type: cell-based, human
Procedure: All results are shown as mean ± standard error of n = 3 independent replicates. […] Readings were compared to the Alamar Blue metabolism in DMSO treated cells that were used as the viability standard of 100% for each replicate experiment. […] (F) Number of invading cells was determined in 5 random fields for each condition for each separate replicate experiment. All results are shown as mean ± standard error of n ≥ 3 independent replicates.
Cell lysates were prepared as described previously. For pMLC western blots, cells were lysed in a 1% (w/v) SDS, 50 mM Tris pH 7.5 buffer and lysates were passed through QIAshredder columns (Qiagen, 79654). Alternatively, for pMLC western blots lysates were prepared in lysis buffer with 50 mM Tris (pH7.5), 0.5% (w/v) SDS, supplemented with Complete Protease and PhosSTOP inhibitors (Roche). Whole cell lysates were separated by SDS-PAGE, transferred to Protran nitrocellulose membranes (Whatman), probed with primary antibodies and appropriate IR dye-conjugated secondary antibodies. Blots were visualized using a Licor Odyssey according to manufacturer’s instructions. […]

[3] = molecular target: T2, PRK2 (Homo sapiens, UniProt Q16513); assay: Kinase selectivity profiling (Eurofins), PRK2; assay type: biochemical
T2 construct: purchased Eurofins
Source text: (§2) The results of this screening were mapped over the annotated human kinome phylogenetic tree using Kinome Render (Figure 2).
(§3) Kinases inhibited less than 25% have their names in green text. Kinases inhibited >25% and ≤50% have yellow circles, >50% and ≤75% have orange circles, and >75% have red circles. In each case, the size of the circle is proportional to the percentage inhibition. ROCK1 and MRCKα positions are indicated on the tree for orientation purposes. Illustration reproduced courtesy of Cell Signaling Technology, Inc. (www.cellsignal.com).
as §1, with “Typically, dose response analyses were performed over concentration ranges from 0.005 - 100 μM. Reactions were stopped by adding 2 assay volumes of 0.25% (v/v) IMAP binding reagent in 1× IMAP binding buffer A (Molecular Devices).” left out, “Inhibition was calculated using no inhibitor and no enzyme controls as 0 and 100% inhibition, respectively.” left out

[4] = molecular target: T3, PKAα (Homo sapiens, UniProt P17612); assay: Kinase selectivity profiling (Eurofins), PKAα; assay type: biochemical
T3 construct: purchased Eurofins
Source text: as §2, §3
as §1, with “Typically, dose response analyses were performed over concentration ranges from 0.005 - 100 μM. Reactions were stopped by adding 2 assay volumes of 0.25% (v/v) IMAP binding reagent in 1× IMAP binding buffer A (Molecular Devices).” left out, “Inhibition was calculated using no inhibitor and no enzyme controls as 0 and 100% inhibition, respectively.” left out

[5] = molecular target: T4, PhKγ2 (Homo sapiens, UniProt P15735); assay: Kinase selectivity profiling (Eurofins), PhKγ2; assay type: biochemical
T4 construct: purchased Eurofins
T4 sequence (P15735 1-406): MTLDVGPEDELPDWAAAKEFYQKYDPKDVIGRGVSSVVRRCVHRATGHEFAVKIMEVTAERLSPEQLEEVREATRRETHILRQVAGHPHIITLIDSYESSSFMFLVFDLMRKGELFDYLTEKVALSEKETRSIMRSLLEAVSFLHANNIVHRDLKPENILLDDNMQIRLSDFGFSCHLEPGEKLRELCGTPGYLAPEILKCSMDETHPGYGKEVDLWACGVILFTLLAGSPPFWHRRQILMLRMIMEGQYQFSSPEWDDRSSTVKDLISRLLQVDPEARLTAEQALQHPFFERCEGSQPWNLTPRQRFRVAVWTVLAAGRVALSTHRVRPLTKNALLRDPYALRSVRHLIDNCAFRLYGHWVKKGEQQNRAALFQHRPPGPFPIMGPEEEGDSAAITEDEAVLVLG
Source text: as §2, §3
as §1, with “Typically, dose response analyses were performed over concentration ranges from 0.005 - 100 μM. Reactions were stopped by adding 2 assay volumes of 0.25% (v/v) IMAP binding reagent in 1× IMAP binding buffer A (Molecular Devices).” left out, “Inhibition was calculated using no inhibitor and no enzyme controls as 0 and 100% inhibition, respectively.” left out

[6] = Caco-2 permeability; assay type: in vitro ADME; conditions: human

T2 sequence (Q16513 whole entry): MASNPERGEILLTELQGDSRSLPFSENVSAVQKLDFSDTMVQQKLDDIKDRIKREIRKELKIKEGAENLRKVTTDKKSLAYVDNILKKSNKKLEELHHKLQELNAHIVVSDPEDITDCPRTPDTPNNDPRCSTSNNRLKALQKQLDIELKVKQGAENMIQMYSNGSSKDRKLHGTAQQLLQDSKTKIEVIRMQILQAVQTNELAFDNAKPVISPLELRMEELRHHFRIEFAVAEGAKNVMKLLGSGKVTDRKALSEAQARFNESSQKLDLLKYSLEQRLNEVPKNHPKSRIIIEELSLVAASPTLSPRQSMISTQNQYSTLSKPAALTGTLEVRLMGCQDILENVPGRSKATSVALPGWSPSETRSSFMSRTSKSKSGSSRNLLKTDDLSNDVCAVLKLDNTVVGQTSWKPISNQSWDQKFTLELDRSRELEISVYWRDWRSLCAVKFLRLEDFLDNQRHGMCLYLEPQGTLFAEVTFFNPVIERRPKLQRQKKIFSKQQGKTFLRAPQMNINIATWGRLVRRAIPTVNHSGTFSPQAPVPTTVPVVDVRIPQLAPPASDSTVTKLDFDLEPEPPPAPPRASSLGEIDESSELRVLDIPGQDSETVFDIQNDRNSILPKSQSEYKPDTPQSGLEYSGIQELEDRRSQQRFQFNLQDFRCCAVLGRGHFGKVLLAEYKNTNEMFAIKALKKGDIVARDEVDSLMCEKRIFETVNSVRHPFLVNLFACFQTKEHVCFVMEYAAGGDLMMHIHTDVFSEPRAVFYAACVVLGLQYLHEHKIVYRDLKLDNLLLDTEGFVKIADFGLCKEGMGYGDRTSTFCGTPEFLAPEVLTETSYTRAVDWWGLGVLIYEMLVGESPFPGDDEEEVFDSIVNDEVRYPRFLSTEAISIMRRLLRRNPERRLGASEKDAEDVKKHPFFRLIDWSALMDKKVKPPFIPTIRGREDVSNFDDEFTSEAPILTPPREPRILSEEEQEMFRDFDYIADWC
T1 sequence (Q9Y5S2 whole entry): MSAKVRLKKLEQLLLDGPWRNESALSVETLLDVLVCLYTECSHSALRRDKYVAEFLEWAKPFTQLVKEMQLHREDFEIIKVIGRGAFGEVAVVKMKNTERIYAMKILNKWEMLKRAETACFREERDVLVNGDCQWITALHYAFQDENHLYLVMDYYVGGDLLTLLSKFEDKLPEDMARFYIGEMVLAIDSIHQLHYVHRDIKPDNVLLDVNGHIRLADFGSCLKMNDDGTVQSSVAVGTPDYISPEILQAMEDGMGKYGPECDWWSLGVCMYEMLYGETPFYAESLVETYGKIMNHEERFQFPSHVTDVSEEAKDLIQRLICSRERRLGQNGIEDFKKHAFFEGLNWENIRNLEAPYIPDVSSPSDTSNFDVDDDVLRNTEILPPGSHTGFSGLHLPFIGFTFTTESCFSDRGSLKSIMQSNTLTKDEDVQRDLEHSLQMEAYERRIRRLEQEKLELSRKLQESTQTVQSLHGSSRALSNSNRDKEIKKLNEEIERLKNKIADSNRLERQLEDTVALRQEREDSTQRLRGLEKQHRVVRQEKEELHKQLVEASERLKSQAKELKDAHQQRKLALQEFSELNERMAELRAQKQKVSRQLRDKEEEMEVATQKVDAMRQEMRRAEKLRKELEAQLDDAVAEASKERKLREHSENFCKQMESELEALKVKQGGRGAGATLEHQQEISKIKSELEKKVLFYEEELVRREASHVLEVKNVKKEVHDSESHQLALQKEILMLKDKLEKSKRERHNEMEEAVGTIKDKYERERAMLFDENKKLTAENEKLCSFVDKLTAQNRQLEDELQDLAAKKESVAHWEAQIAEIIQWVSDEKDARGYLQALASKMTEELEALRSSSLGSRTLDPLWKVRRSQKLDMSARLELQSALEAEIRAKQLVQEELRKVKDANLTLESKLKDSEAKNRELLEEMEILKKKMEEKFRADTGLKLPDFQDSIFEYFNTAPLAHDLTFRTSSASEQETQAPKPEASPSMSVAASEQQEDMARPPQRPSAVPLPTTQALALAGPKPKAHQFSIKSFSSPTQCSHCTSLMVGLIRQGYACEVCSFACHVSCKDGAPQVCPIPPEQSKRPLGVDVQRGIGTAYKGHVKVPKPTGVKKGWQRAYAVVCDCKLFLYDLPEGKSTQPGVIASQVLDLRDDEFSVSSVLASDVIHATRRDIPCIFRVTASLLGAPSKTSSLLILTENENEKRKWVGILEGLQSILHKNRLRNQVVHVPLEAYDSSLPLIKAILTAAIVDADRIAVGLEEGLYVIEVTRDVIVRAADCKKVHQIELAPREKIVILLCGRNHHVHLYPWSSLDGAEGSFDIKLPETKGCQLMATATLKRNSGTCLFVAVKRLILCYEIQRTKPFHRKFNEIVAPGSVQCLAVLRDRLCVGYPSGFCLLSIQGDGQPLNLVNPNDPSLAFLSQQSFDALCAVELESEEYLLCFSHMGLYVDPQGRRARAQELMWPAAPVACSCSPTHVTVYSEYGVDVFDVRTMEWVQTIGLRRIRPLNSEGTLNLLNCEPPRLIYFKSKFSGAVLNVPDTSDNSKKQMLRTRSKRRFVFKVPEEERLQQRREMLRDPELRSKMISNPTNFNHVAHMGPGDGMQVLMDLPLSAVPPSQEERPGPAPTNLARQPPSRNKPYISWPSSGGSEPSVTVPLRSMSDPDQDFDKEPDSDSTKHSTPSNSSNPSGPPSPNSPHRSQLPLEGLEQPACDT

IC50 [1]	inhibition at 10 µM [3]	inhibition at 10 µM [4]	inhibition at 10 µM [5]	Papp [6]	Compound	phosphorylated MLC at higher doses in SCC12 cells [2]
1.45 µM	–	–	–	–	C[C@@H](N)[C@H]1CC[C@H](C(=O)Nc2ccncc2)CC1 [Y27632, reference compound]	residual phosphorylated MLC
–	> 75%	> 75%	> 75%	0.171 ×10⁻⁶ cm/s	O=C(Nc1cn[nH]c1-c1ccccn1)c1nn(C2CCNCC2)cc1Cl [BDP5290, 4-chloro-1-(4-piperidyl)-N-[5-(2-pyridyl)-1H-pyrazol-4-yl]pyrazole-3-carboxamide]	–
